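Five compound concentrations were applied to cells in 96-well plates for 48 hours; endpoints were derived by simple linear interpolation of the resulting dose-response curve. GI50 is the concentration that inhibits growth by half. TGI denotes the concentration required for complete inhibition of growth.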
What was measured:
Assay in all cases: DTP human tumour cell line panel, 48 h
DU-145 prostate = tested on: DU-145 prostate
NCI-H460 lung = tested on: NCI-H460 lung
CCRF-CEM leukemia = tested on: CCRF-CEM leukemia
EKVX NSCLC = tested on: EKVX NSCLC
MOLT-4 leukemia = tested on: MOLT-4 leukemia
SK-MEL-5 melanoma = tested on: SK-MEL-5 melanoma
SF-539 CNS = tested on: SF-539 CNS
OVCAR-4 ovarian = tested on: OVCAR-4 ovarian
SNB-19 CNS = tested on: SNB-19 CNS
PC-3 prostate = tested on: PC-3 prostate
RXF 393 renal = tested on: RXF 393 renal
HOP-62 NSCLC = tested on: HOP-62 NSCLC
TK-10 renal = tested on: TK-10 renal
IGROV1 ovarian = tested on: IGROV1 ovarian
ACHN renal = tested on: ACHN renal
U251 CNS = tested on: U251 CNS
MCF7 breast = tested on: MCF7 breast
A549 NSCLC = tested on: A549 NSCLC
UO-31 renal = tested on: UO-31 renal
SN12C renal = tested on: SN12C renal
NCI-H226 lung = tested on: NCI-H226 lung
CAKI-1 renal = tested on: CAKI-1 renal
SF-268 CNS = tested on: SF-268 CNS
MALME-3M melanoma = tested on: MALME-3M melanoma
HOP-92 NSCLC = tested on: HOP-92 NSCLC
SK-MEL-28 melanoma = tested on: SK-MEL-28 melanoma
HCT-15 colon = tested on: HCT-15 colon
OVCAR-5 ovarian = tested on: OVCAR-5 ovarian
NCI-H23 lung = tested on: NCI-H23 lung
LOX IMVI melanoma = tested on: LOX IMVI melanoma
NCI-H522 lung = tested on: NCI-H522 lung
HCC-2998 colon = tested on: HCC-2998 colon
SF-295 CNS = tested on: SF-295 CNS
KM12 colon = tested on: KM12 colon
HT29 colon = tested on: HT29 colon
T-47D breast = tested on: T-47D breast
UACC-62 melanoma = tested on: UACC-62 melanoma
RPMI-8226 leukemia = tested on: RPMI-8226 leukemia
SK-OV-3 ovarian = tested on: SK-OV-3 ovarian
SW-620 colon = tested on: SW-620 colon
SR leukemia = tested on: SR leukemia
UACC-257 melanoma = tested on: UACC-257 melanoma
HS 578T breast = tested on: HS 578T breast
COLO 205 colon = tested on: COLO 205 colon
786-0 renal = tested on: 786-0 renal
OVCAR-8 ovarian = tested on: OVCAR-8 ovarian
HCT-116 colon = tested on: HCT-116 colon
MDA-MB-231 breast = tested on: MDA-MB-231 breast
OVCAR-3 ovarian = tested on: OVCAR-3 ovarian
A498 renal = tested on: A498 renal
BT-549 breast = tested on: BT-549 breast
HL-60(TB) leukemia = tested on: HL-60(TB) leukemia
SNB-75 CNS = tested on: SNB-75 CNS
K-562 leukemia = tested on: K-562 leukemia

Molecule `NC(=Nc1ccc(OCCCCCCCCn2ccnn2)cc1)c1ccccc1` has a GI50 (DU-145 prostate) of 446 nM, a TGI (DU-145 prostate) of 24600 nM and a GI50 (NCI-H460 lung) of 208 nM. For the same molecule, the TGI (NCI-H460 lung) was 10300 nM, the GI50 (CCRF-CEM leukemia) was 271 nM and the TGI (CCRF-CEM leukemia) was 19400 nM. For the same molecule, the GI50 (EKVX NSCLC) was 286 nM, the TGI (EKVX NSCLC) was > 40900 nM and the GI50 (MOLT-4 leukemia) was 585 nM. The TGI (MOLT-4 leukemia) was > 49600 nM, the GI50 (SK-MEL-5 melanoma) was 157 nM and the TGI (SK-MEL-5 melanoma) was 1720 nM. The GI50 (SF-539 CNS) was 239 nM, the TGI (SF-539 CNS) was 870 nM and the GI50 (OVCAR-4 ovarian) was 4260 nM. For the same molecule, the TGI (OVCAR-4 ovarian) was > 62900 nM, the GI50 (SNB-19 CNS) was 757 nM and the TGI (SNB-19 CNS) was > 49900 nM. For the same molecule, the GI50 (PC-3 prostate) was 337 nM, the TGI (PC-3 prostate) was > 44900 nM and the GI50 (RXF 393 renal) was 304 nM. The TGI (RXF 393 renal) was 6290 nM, the GI50 (HOP-62 NSCLC) was 466 nM and the TGI (HOP-62 NSCLC) was 15000 nM. It also gave a GI50 (TK-10 renal) of 3000 nM, a TGI (TK-10 renal) of 45000 nM and a GI50 (IGROV1 ovarian) of 564 nM. The TGI (IGROV1 ovarian) was 16800 nM, the GI50 (ACHN renal) was 714 nM and the TGI (ACHN renal) was 24700 nM. The GI50 (U251 CNS) was 427 nM, the TGI (U251 CNS) was 28800 nM and the GI50 (MCF7 breast) was 124 nM. The TGI (MCF7 breast) was 18800 nM, the GI50 (A549 NSCLC) was 458 nM and the TGI (A549 NSCLC) was > 46300 nM. It also gave a GI50 (UO-31 renal) of 565 nM, a TGI (UO-31 renal) of 19900 nM and a GI50 (SN12C renal) of 495 nM. It also gave a TGI (SN12C renal) of 16100 nM, a GI50 (NCI-H226 lung) of 853 nM and a TGI (NCI-H226 lung) of 12100 nM. It also gave a GI50 (CAKI-1 renal) of 260 nM, a TGI (CAKI-1 renal) of 21000 nM and a GI50 (SF-268 CNS) of 1170 nM. It also gave a TGI (SF-268 CNS) of 25400 nM, a GI50 (MALME-3M melanoma) of 300 nM and a TGI (MALME-3M melanoma) of 15900 nM. For the same molecule, the GI50 (HOP-92 NSCLC) was 1200 nM, the TGI (HOP-92 NSCLC) was 28800 nM and the GI50 (SK-MEL-28 melanoma) was 662 nM. For the same molecule, the TGI (SK-MEL-28 melanoma) was 22900 nM, the GI50 (HCT-15 colon) was 236 nM and the TGI (HCT-15 colon) was 22900 nM. For the same molecule, the GI50 (OVCAR-5 ovarian) was 432 nM, the TGI (OVCAR-5 ovarian) was 17300 nM and the GI50 (NCI-H23 lung) was 458 nM. It also gave a TGI (NCI-H23 lung) of 17900 nM, a GI50 (LOX IMVI melanoma) of 482 nM and a TGI (LOX IMVI melanoma) of 13100 nM. The GI50 (NCI-H522 lung) was 207 nM, the TGI (NCI-H522 lung) was 1900 nM and the GI50 (HCC-2998 colon) was 535 nM. For the same molecule, the TGI (HCC-2998 colon) was 11200 nM, the GI50 (SF-295 CNS) was 204 nM and the TGI (SF-295 CNS) was 11500 nM. It also gave a GI50 (KM12 colon) of 269 nM, a TGI (KM12 colon) of 19000 nM and a GI50 (HT29 colon) of 293 nM. It also gave a TGI (HT29 colon) of 884 nM, a GI50 (T-47D breast) of 449 nM and a TGI (T-47D breast) of 34400 nM. The GI50 (UACC-62 melanoma) was 215 nM, the TGI (UACC-62 melanoma) was 13100 nM and the GI50 (RPMI-8226 leukemia) was 404 nM. It also gave a TGI (RPMI-8226 leukemia) of 17800 nM, a GI50 (SK-OV-3 ovarian) of 532 nM and a TGI (SK-OV-3 ovarian) of 32800 nM. For the same molecule, the GI50 (SW-620 colon) was 148 nM, the TGI (SW-620 colon) was > 40800 nM and the GI50 (SR leukemia) was 606 nM. For the same molecule, the TGI (SR leukemia) was > 100000 nM, the GI50 (UACC-257 melanoma) was 952 nM and the TGI (UACC-257 melanoma) was 18500 nM. It also gave a GI50 (HS 578T breast) of 271 nM, a TGI (HS 578T breast) of 7440 nM and a GI50 (COLO 205 colon) of 238 nM. For the same molecule, the TGI (COLO 205 colon) was 1140 nM, the GI50 (786-0 renal) was 643 nM and the TGI (786-0 renal) was > 44100 nM. It also gave a GI50 (OVCAR-8 ovarian) of 462 nM, a TGI (OVCAR-8 ovarian) of 3970 nM and a GI50 (HCT-116 colon) of 325 nM. The TGI (HCT-116 colon) was 12700 nM, the GI50 (MDA-MB-231 breast) was 557 nM and the TGI (MDA-MB-231 breast) was 12700 nM. It also gave a GI50 (OVCAR-3 ovarian) of 126 nM, a TGI (OVCAR-3 ovarian) of 5000 nM and a GI50 (A498 renal) of 4750 nM. The TGI (A498 renal) was 28400 nM, the GI50 (BT-549 breast) was 656 nM and the TGI (BT-549 breast) was 12200 nM. The GI50 (HL-60(TB) leukemia) was 239 nM, the TGI (HL-60(TB) leukemia) was 2900 nM and the GI50 (SNB-75 CNS) was 163 nM. For the same molecule, the TGI (SNB-75 CNS) was 29200 nM, the GI50 (K-562 leukemia) was 144 nM and the TGI (K-562 leukemia) was > 56000 nM.
